Measurements: article PMC7901654, “Bioisosteric Discovery of NPA101.3, a Second-Generation RET/VEGFR2 Inhibitor Optimized for Single-Agent Polypharmacology” (Journal of Medicinal Chemistry, 2020)

Assays:
Experiment in all cases: KinomeScan panel screen
Assay type in all cases: binding
CAMK2A = target: T1, CAMK2A (Homo sapiens, UniProt Q9UQM7); conditions: 100 nM, read-out: Percent Control
T1 construct: purchased DiscoveRx KINOMEscan (TRKA and CSF1R IC50 enzymes from Invitrogen)
Description: (§1) In addition, NPA101.3, at a concentration of 100 nM, was subjected to a kinome scan against a 96-kinase panel representing major kinome clusters (Table S2). The compound featured good selectivity, displaying strong binding activity (>90% bound) for only seven additional kinases [CSF1R (colony stimulating factor 1 receptor), FRK (fyn-related Src family tyrosine kinase), HCK (HCK proto-oncogene, Src family tyrosine kinase), LYN (lyn proto-oncogene, Src family tyrosine kinase), MKNK2 (MAPK-interacting serine/threonine kinase 2), TRKA (neurotrophic receptor tyrosine kinase 1), and TRKC (neurotrophic receptor tyrosine kinase 3)] and weak binding (>10–35% bound) for six other kinases (Table S2 and Figure S2). It is important to note that the measurement of binding affinity, which is based on control ligand displacement (Kd), is more sensitive than the in vitro kinase assay. Among the seven kinases with >90% binding, TRKA and CSF1R were selected for an in vitro kinase assay.
(§2) Supplementary Table S2: NPA101.3 KinomeScan Panel screen.
(§3) NPA101.3 was screened at a single concentration of 100 nM. Hits values lower than
(§4) 10% of control were considered strongly positive.
(§5) DiscoveRx Gene Entrez Gene Percent Compound
(§6) Symbol Symbol Control Concentration

ASK1 = target: T2, ASK1 (Homo sapiens, UniProt Q99683); conditions: ASK1, 100 nM; read-out: Percent Control
T2 construct: purchased DiscoveRx KINOMEscan (TRKA and CSF1R IC50 enzymes from Invitrogen)
Description: as §1, §2, §3, §4, §5, §6

ACVR1 = target: T3, ACVR1 (Homo sapiens, UniProt Q04771); conditions: ACVR1, 100 nM; read-out: Percent Control
T3 construct: purchased DiscoveRx KINOMEscan (TRKA and CSF1R IC50 enzymes from Invitrogen)
Description: as §1, §2, §3, §4, §5, §6

LRRK2 = target: T4, LRRK2 (Homo sapiens, UniProt Q5S007); conditions: LRRK2, 100 nM; read-out: Percent Control
T4 construct: purchased DiscoveRx KINOMEscan (TRKA and CSF1R IC50 enzymes from Invitrogen)
Description: as §1, §2, §3, §4, §5, §6

PIK3CA = target: T5, PIK3CA (Homo sapiens, UniProt P42336); conditions: 100 nM, read-out: Percent Control
T5 construct: purchased DiscoveRx KINOMEscan (TRKA and CSF1R IC50 enzymes from Invitrogen)
Description: as §1, §2, §3, §4, §5, §6

BMX = target: T6, BMX (Homo sapiens, UniProt P51813); conditions: 100 nM, read-out: Percent Control
T6 construct: purchased DiscoveRx KINOMEscan (TRKA and CSF1R IC50 enzymes from Invitrogen)
Description: as §1, §2, §3, §4, §5, §6

EPHA1 = target: T7, EPHA1 (Homo sapiens, UniProt P21709); conditions: EPHA1, 100 nM; read-out: Percent Control
T7 construct: purchased DiscoveRx KINOMEscan (TRKA and CSF1R IC50 enzymes from Invitrogen)
Description: as §1, §2, §3, §4, §5, §6

WNK1 = target: T8, WNK1 (Homo sapiens, UniProt Q9H4A3); conditions: WNK1, 100 nM; read-out: Percent Control
T8 construct: purchased DiscoverX (outsourced KINOMEscan)
Description: as §1, §2, §3, §4, §5, §6

STK33 = target: T9, STK33 (Homo sapiens, UniProt Q9BYT3); conditions: STK33, 100 nM; read-out: Percent Control
T9 construct: purchased DiscoveRx KINOMEscan (TRKA and CSF1R IC50 enzymes from Invitrogen)
Description: as §1, §2, §3, §4, §5, §6

BRSK2 = target: T10, BRSK2 (Homo sapiens, UniProt Q8IWQ3); conditions: BRSK2, 100 nM; read-out: Percent Control
T10 construct: purchased DiscoveRx KINOMEscan (TRKA and CSF1R IC50 enzymes from Invitrogen)
Description: as §1, §2, §3, §4, §5, §6

MAP4K3 = target: T11, MAP4K3 (Homo sapiens, UniProt Q8IVH8); conditions: MAP4K3, 100 nM; read-out: Percent Control
T11 construct: purchased DiscoveRx KINOMEscan (TRKA and CSF1R IC50 enzymes from Invitrogen)
Description: as §1, §2, §3, §4, §5, §6

FGFR3 = target: T12, FGFR3 (Homo sapiens, UniProt P22607); conditions: FGFR3, 100 nM; read-out: Percent Control
T12 construct: purchased DiscoveRx KINOMEscan (TRKA and CSF1R IC50 enzymes from Invitrogen)
Description: as §1, §2, §3, §4, §5, §6

PIM2 = target: T13, PIM2 (Homo sapiens, UniProt Q9P1W9); conditions: PIM2, 100 nM; read-out: Percent Control
T13 construct: purchased DiscoveRx KINOMEscan (TRKA and CSF1R IC50 enzymes from Invitrogen)
Description: as §1, §2, §3, §4, §5, §6

[1] = target: T14, JAK2(JH1domain-catalytic) (Homo sapiens, UniProt O60674); conditions: 100 nM, read-out: Percent Control
T14 construct: JAK2(JH1domain-catalytic); purchased DiscoveRx KINOMEscan (TRKA and CSF1R IC50 enzymes from Invitrogen)
Description: as §1, §2, §3, §4, §5, §6

TIE2 = target: T15, TIE2 (Homo sapiens, UniProt Q02763); conditions: TIE2, 100 nM; read-out: Percent Control
T15 construct: purchased DiscoveRx KINOMEscan (TRKA and CSF1R IC50 enzymes from Invitrogen)
Description: as §1, §2, §3, §4, §5, §6

ULK1 = target: T16, ULK1 (Homo sapiens, UniProt O75385); conditions: ULK1, 100 nM; read-out: Percent Control
T16 construct: purchased DiscoverX (outsourced KINOMEscan)
Description: as §1, §2, §3, §4, §5, §6

MUSK = target: T17, MUSK (Homo sapiens, UniProt O15146); conditions: 100 nM, read-out: Percent Control
T17 construct: purchased DiscoveRx KINOMEscan (TRKA and CSF1R IC50 enzymes from Invitrogen)
Description: as §1, §2, §3, §4, §5, §6

LKB1 = target: T18, LKB1 (Homo sapiens, UniProt Q15831); conditions: LKB1, 100 nM; read-out: Percent Control
T18 construct: purchased DiscoveRx KINOMEscan (TRKA and CSF1R IC50 enzymes from Invitrogen)
Description: as §1, §2, §3, §4, §5, §6

MYLK4 = target: T19, MYLK4 (Homo sapiens, UniProt Q86YV6); conditions: MYLK4, 100 nM; read-out: Percent Control
T19 construct: purchased DiscoveRx KINOMEscan (TRKA and CSF1R IC50 enzymes from Invitrogen)
Description: as §1, §2, §3, §4, §5, §6

AXL = target: T20, AXL (Homo sapiens, UniProt P30530); conditions: 100 nM, read-out: Percent Control
T20 construct: purchased DiscoveRx KINOMEscan (TRKA and CSF1R IC50 enzymes from Invitrogen)
Description: as §1, §2, §3, §4, §5, §6

MLK2 = target: T21, MLK2 (Homo sapiens, UniProt Q02779); conditions: MLK2, 100 nM; read-out: Percent Control
T21 construct: purchased DiscoveRx KINOMEscan (TRKA and CSF1R IC50 enzymes from Invitrogen)
Description: as §1, §2, §3, §4, §5, §6

DRAK1 = target: T22, DRAK1 (Homo sapiens, UniProt Q9UEE5); conditions: DRAK1, 100 nM; read-out: Percent Control
T22 construct: purchased DiscoveRx KINOMEscan (TRKA and CSF1R IC50 enzymes from Invitrogen)
Description: as §1, §2, §3, §4, §5, §6

GAK = target: T23, GAK (Homo sapiens, UniProt O14976); conditions: 100 nM, read-out: Percent Control
T23 construct: purchased DiscoveRx KINOMEscan (TRKA and CSF1R IC50 enzymes from Invitrogen)
Description: as §1, §2, §3, §4, §5, §6

MTOR = target: T24, MTOR (Homo sapiens, UniProt P42345); conditions: 100 nM, read-out: Percent Control
T24 construct: purchased DiscoveRx KINOMEscan (TRKA and CSF1R IC50 enzymes from Invitrogen)
Description: as §1, §2, §3, §4, §5, §6

EGFR = target: T25, EGFR (Homo sapiens, UniProt P00533); conditions: 100 nM, read-out: Percent Control
T25 construct: purchased DiscoveRx KINOMEscan (TRKA and CSF1R IC50 enzymes from Invitrogen)
Description: as §1, §2, §3, §4, §5, §6

CAMK1 = target: T26, CAMK1 (Homo sapiens, UniProt Q14012); conditions: CAMK1, 100 nM; read-out: Percent Control
T26 construct: purchased DiscoveRx KINOMEscan (TRKA and CSF1R IC50 enzymes from Invitrogen)
Description: as §1, §2, §3, §4, §5, §6

BUB1 = target: T27, BUB1 (Homo sapiens, UniProt O43683); conditions: BUB1, 100 nM; read-out: Percent Control
T27 construct: purchased DiscoveRx KINOMEscan (TRKA and CSF1R IC50 enzymes from Invitrogen)
Description: as §1, §2, §3, §4, §5, §6

DLK = target: T28, DLK (Homo sapiens, UniProt Q12852); conditions: 100 nM, read-out: Percent Control
T28 construct: purchased DiscoveRx KINOMEscan (TRKA and CSF1R IC50 enzymes from Invitrogen)
Description: as §1, §2, §3, §4, §5, §6

FRK = target: T29, FRK (Homo sapiens, UniProt P42685); conditions: 100 nM
T29 construct: purchased DiscoveRx KINOMEscan (TRKA and CSF1R IC50 enzymes from Invitrogen)
Description: as §1, §2, §3, §4, §5, §6

MKNK2 = target: T30, MKNK2 (Homo sapiens, UniProt Q9HBH9)
T30 construct: purchased DiscoveRx KINOMEscan (TRKA and CSF1R IC50 enzymes from Invitrogen)
Description: as §1, §2, §3, §4, §5, §6

T30 sequence (Q9HBH9 whole entry): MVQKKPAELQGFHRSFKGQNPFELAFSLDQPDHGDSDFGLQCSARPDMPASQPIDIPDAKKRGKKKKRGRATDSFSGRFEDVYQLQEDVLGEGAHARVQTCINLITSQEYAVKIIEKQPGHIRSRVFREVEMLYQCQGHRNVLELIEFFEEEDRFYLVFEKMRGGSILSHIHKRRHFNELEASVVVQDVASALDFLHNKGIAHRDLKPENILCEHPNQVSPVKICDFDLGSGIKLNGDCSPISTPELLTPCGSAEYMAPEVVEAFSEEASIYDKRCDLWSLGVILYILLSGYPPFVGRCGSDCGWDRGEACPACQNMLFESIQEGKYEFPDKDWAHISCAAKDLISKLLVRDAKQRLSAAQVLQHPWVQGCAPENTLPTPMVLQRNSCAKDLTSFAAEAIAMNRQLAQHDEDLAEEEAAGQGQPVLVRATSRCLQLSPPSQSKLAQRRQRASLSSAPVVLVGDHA
T29 sequence (P42685 whole entry): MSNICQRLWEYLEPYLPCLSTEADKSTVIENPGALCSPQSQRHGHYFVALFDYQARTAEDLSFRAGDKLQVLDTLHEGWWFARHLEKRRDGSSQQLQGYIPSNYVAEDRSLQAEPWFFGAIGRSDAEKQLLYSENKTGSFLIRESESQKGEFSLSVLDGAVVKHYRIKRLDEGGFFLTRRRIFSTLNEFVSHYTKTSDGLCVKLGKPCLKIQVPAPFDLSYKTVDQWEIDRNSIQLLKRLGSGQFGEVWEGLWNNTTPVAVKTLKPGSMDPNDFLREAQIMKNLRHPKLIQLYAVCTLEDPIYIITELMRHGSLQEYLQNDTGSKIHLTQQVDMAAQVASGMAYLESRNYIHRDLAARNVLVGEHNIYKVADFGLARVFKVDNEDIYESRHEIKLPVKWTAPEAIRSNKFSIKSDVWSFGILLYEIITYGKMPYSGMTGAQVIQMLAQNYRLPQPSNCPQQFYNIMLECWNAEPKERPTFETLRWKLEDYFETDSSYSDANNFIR
T20 sequence (P30530 26-894): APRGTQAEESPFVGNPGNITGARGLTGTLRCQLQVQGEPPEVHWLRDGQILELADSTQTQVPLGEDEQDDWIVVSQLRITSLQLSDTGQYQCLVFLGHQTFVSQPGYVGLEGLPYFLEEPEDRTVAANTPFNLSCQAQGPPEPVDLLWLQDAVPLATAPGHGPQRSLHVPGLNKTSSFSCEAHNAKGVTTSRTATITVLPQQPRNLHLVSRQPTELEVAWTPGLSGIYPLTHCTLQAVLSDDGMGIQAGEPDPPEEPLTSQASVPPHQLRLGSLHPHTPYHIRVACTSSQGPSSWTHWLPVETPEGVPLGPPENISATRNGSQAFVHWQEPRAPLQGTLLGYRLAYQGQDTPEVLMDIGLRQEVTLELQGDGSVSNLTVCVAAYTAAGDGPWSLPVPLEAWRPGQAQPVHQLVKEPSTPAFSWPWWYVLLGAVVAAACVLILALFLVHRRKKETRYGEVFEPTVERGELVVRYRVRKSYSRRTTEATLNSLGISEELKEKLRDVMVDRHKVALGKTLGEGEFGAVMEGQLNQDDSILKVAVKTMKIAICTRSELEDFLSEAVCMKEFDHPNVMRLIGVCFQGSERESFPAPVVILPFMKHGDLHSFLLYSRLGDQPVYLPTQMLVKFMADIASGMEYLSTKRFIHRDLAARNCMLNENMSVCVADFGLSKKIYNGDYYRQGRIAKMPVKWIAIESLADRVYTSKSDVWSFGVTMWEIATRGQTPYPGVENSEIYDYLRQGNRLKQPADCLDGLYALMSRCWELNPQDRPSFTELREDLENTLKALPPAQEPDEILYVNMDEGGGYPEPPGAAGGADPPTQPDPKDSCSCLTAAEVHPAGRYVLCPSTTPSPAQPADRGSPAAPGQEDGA
T11 sequence (Q8IVH8 whole entry): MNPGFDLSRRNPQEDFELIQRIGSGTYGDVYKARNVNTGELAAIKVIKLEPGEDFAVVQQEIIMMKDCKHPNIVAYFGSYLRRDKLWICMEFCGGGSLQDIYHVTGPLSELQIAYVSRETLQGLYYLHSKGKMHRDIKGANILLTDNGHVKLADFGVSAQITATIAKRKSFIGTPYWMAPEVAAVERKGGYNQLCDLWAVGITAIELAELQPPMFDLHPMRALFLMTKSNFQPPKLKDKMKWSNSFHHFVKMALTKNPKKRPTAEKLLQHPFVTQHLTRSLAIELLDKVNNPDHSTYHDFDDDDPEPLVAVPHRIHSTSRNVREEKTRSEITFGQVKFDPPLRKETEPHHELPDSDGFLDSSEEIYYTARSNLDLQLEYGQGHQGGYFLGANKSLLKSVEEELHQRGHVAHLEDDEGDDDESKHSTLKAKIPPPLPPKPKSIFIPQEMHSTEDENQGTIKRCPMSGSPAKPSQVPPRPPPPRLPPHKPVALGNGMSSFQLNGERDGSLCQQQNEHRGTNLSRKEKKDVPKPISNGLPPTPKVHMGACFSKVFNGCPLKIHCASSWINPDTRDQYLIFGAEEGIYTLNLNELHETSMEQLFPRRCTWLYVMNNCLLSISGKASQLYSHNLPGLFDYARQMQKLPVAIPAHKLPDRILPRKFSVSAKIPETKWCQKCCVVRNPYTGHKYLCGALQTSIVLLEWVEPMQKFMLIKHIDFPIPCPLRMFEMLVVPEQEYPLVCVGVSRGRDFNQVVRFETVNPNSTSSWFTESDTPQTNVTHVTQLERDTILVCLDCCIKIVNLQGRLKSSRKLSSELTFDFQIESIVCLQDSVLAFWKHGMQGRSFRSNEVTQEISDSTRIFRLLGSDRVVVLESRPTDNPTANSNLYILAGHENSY
T26 sequence (Q14012 whole entry): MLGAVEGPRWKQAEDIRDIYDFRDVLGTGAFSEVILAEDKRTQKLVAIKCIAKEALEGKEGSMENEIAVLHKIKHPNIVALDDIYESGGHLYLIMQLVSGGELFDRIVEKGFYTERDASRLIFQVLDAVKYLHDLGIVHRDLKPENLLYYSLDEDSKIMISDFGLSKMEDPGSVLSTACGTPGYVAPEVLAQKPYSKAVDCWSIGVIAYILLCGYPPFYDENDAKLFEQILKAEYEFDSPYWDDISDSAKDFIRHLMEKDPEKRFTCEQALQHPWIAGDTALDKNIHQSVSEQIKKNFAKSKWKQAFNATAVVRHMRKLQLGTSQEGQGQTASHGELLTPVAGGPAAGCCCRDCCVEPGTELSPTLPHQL
T28 sequence (Q12852 whole entry): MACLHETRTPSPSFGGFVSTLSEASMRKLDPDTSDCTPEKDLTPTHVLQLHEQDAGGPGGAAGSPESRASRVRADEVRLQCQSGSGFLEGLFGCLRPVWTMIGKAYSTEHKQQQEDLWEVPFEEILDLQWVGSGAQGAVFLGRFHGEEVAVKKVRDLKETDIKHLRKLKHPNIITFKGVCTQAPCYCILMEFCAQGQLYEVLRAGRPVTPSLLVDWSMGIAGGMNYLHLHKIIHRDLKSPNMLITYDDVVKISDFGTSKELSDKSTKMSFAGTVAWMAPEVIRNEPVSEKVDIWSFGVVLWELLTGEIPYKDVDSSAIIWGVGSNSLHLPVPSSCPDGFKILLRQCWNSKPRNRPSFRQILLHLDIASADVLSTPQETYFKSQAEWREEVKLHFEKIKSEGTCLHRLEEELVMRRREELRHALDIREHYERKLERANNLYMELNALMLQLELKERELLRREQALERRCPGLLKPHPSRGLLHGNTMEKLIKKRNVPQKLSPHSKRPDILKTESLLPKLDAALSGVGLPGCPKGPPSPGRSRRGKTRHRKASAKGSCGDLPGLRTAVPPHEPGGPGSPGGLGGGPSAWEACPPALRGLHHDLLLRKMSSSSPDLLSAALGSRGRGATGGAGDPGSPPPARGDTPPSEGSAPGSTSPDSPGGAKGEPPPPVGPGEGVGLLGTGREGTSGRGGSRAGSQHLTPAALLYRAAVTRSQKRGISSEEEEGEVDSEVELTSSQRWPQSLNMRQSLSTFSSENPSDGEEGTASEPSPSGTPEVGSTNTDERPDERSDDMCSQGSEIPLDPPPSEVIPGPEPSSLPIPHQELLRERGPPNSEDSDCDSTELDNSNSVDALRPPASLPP
T1 sequence (Q9UQM7 whole entry): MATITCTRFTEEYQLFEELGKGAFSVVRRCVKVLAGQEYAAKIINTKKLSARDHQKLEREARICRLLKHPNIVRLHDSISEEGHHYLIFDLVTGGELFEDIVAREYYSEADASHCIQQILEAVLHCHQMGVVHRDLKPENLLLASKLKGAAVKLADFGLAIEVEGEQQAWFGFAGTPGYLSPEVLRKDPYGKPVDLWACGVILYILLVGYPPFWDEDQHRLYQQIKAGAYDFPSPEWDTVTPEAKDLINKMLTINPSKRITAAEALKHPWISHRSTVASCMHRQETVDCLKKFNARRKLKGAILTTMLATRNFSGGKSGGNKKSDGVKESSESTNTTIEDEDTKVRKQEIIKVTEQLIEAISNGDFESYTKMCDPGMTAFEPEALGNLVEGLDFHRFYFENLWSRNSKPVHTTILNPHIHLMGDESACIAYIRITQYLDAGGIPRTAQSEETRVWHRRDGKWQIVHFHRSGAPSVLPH
T9 sequence (Q9BYT3 whole entry): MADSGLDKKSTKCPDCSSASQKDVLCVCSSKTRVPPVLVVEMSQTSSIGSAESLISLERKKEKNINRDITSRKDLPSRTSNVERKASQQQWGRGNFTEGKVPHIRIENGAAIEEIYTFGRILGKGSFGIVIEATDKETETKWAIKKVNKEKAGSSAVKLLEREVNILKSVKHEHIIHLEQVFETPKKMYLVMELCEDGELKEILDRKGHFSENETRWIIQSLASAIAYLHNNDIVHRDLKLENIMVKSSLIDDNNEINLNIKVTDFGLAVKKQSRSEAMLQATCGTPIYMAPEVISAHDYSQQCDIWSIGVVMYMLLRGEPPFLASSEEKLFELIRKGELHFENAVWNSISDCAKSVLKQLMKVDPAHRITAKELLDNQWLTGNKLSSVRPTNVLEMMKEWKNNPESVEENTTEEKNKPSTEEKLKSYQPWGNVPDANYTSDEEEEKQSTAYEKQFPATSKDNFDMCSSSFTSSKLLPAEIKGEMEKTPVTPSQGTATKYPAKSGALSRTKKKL

CC(C)(C)c1cc(NC(=O)Cc2ccc(-n3cnc4cc(-c5ccc(S(C)(=O)=O)cc5)ccc43)cc2)no1 [NPA101.3]
remaining binding at 0.1 µM (CAMK2A): 98%
remaining binding at 0.1 µM (ASK1): 95%
remaining binding at 0.1 µM (ACVR1): 92%
remaining binding at 0.1 µM (LRRK2): 100%
remaining binding at 0.1 µM (PIK3CA): 100%
remaining binding at 0.1 µM (BMX): 94%
remaining binding at 0.1 µM (EPHA1): 39%
remaining binding at 0.1 µM (WNK1): 93%
remaining binding at 0.1 µM (STK33): 83%
remaining binding at 0.1 µM (BRSK2): 100%
remaining binding at 0.1 µM (MAP4K3): 95%
remaining binding at 0.1 µM (FGFR3): 100%
remaining binding at 0.1 µM (PIM2): 94%
remaining binding at 0.1 µM [1]: 100%
remaining binding at 0.1 µM (TIE2): 30%
remaining binding at 0.1 µM (ULK1): 100%
remaining binding at 0.1 µM (MUSK): 23%
remaining binding at 0.1 µM (LKB1): 81%
remaining binding at 0.1 µM (MYLK4): 89%
remaining binding at 0.1 µM (AXL): 62%
remaining binding at 0.1 µM (MLK2): 100%
remaining binding at 0.1 µM (DRAK1): 75%
remaining binding at 0.1 µM (GAK): 42%
remaining binding at 0.1 µM (MTOR): 97%
remaining binding at 0.1 µM (EGFR): 96%
remaining binding at 0.1 µM (CAMK1): 95%
remaining binding at 0.1 µM (BUB1): 100%
remaining binding at 0.1 µM (DLK): 100%
binding (% bound) (FRK): > 90 % bound
remaining binding at 0.1 µM (FRK; FRK, read-out: Percent Control): 1.1%
binding (% bound) (MKNK2; 100 nM): > 90 % bound
remaining binding at 0.1 µM (MKNK2; MKNK2, 100 nM, read-out: Percent Control): 0.15%
